In brackets after ≈: the same amount, converted by molar mass. Records with an inconclusive call do not appear. Activity calls are given as the source filed them. How the calls were made is not given here.
Test system: M. tuberculosis H37Rv growth inhibition
Assay: Confirmatory growth inhibition assay against Mycobacterium tuberculosis H37Rv, potency (AID 1949);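 further: bacteria grown 7 days with compound before Alamar blue readout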

Row | SMILES | IC50
1 | Cn1c(=O)c([N+](=O)[O-])c(Nc2cccc(C(F)(F)F)c2)c2ccccc21 | 15.4 µg/mL (≈ 42.3 µM)
2 | O=C(CSc1nnc(-c2ccccc2)o1)Nc1ccc2ccccc2c1 | 1.02 µg/mL (≈ 2.82 µM)
3 | CC(C)OC(=O)COc1cc(O)c2c(=O)cc(-c3ccccc3)oc2c1 | 19.6 µg/mL (≈ 55.2 µM)
4 | O=[N+]([O-])c1c(Nc2ccccc2)[nH]c2ccccc12 | 9.27 µg/mL (≈ 36.6 µM)
5 | O=[N+]([O-])/C=C/c1cccn1-c1ccc(F)cc1 | 7.57 µg/mL (≈ 32.6 µM)
6 | CCCCc1cc(=O)oc2cc(OC(C)C(=O)OCC)c(Cl)cc12 (centres undefined) | < 0.1 µg/mL
7 | Cc1ccc(C(=O)Nc2ccc([N+](=O)[O-])cc2)s1 | < 0.1 µg/mL
8 | CCCc1nc2ccccc2n1CC(O)COc1ccc(Br)cc1 (centres undefined) | 4.08 µg/mL (≈ 10.5 µM)
9 | CC(C)(C)c1ccc(-c2noc(-c3cccnc3)n2)cc1 | 4.34 µg/mL (≈ 15.5 µM)
10 | Cn1nc([N+](=O)[O-])nc1Sc1ncnn1-c1ccccc1 | 2.98 µg/mL (≈ 9.83 µM)
11 | CC(=O)c1ccc(NC(=S)Nc2ccc(Br)c(Cl)c2)cc1 | 2.14 µg/mL (≈ 5.58 µM)
12 | O=Cc1c(Nc2ccccc2)nc2ccccn2c1=O | 6.7 µg/mL (≈ 25.3 µM)
13 | Cc1ccccc1NC(=O)C(Cc1ccccc1)NC(=O)c1ccccc1 (centres undefined) | 37.5 µg/mL (≈ 105 µM)
14 | COc1ccc(CCNC(=O)c2ccc(C#CC(C)(C)O)s2)cc1 | < 0.1 µg/mL
15 | COC(=O)COc1ccc(NC(=O)c2ccccc2Br)cc1 | 1.17 µg/mL (≈ 3.21 µM)
16 | CCOC(=O)c1cccc(NC(=O)C(Cl)Cl)c1 | 3.07 µg/mL (≈ 11.1 µM)
17 | Cc1ccc(NC(=O)c2cc3cc(Cl)cc(Cl)c3oc2=O)c(C)c1 | 1.1 µg/mL (≈ 3.04 µM)
18 | O=C(NCc1cccc(C(F)(F)F)c1)Nc1cccc(Cl)c1 | 5.93 µg/mL (≈ 18 µM)
19 | CCCOc1ccc(C2Oc3ccc(Br)cc3C=C2[N+](=O)[O-])cc1OC (centres undefined) | 1.48 µg/mL (≈ 3.52 µM)
20 | O=C(NCCCN1CCN(c2ccc(Cl)cc2)CC1)Nc1ccc(F)cc1 | 9.16 µg/mL (≈ 23.4 µM)

Row | SMILES | IC50
21 | FC(F)(F)c1cccc(NC(=S)Nc2ccc(Cl)cc2Cl)c1 | 12.1 µg/mL (≈ 33.1 µM)
22 | Cc1ccc2nc(SCc3ccc4ccccc4c3)[nH]c2c1 | 11 µg/mL (≈ 36 µM)
23 | CCC(=O)NC(=S)Nc1ccc(C(C)C)cc1 | < 0.1 µg/mL
24 | Cc1cc(C)nc(/N=C(/N)Nc2ccc(OCc3ccccc3)cc2)n1 | 4.64 µg/mL (≈ 13.4 µM)
25 | O=C(COc1ccc2ccccc2c1)c1ccc(Cl)cc1 | 16.5 µg/mL (≈ 55.4 µM)
26 | CCOC(=O)c1cc(-c2ccccc2)sc1NC(=S)NC(C)c1ccncc1 (centres undefined) | 1.47 µg/mL (≈ 3.57 µM)
27 | CCCn1nnnc1NC(=O)c1cccs1 | 1.67 µg/mL (≈ 7.04 µM)
28 | O=[N+]([O-])c1nn(-c2ccccc2)n(O)c1=NC1CCCC1 | 39.3 µg/mL (≈ 136 µM)
29 | O=C(NC1CCCCC1)N1CCN(Cc2ccc3c(c2)OCO3)CC1 | 0.39 µg/mL (≈ 1.13 µM)
30 | CCc1ccccc1NC(=O)c1cc2cc([N+](=O)[O-])cc(OC)c2oc1=O | > 50 µg/mL (inactive)
31 | O=C(OCc1nnc(-c2ccccc2)o1)c1cc(-c2cccs2)nc2ccccc12 | 3.03 µg/mL (≈ 7.33 µM)
32 | CC(CCc1ccccc1)Nc1cc(N2CCNCC2)ccc1[N+](=O)[O-] (centres undefined) | > 50 µg/mL (inactive)
33 | O=C(Nc1ccc(F)c(Cl)c1)C1CC2CCCC(C1)C2=O (centres undefined) | 39.7 µg/mL (≈ 128 µM)
34 | CC(NCC(O)COc1ccccc1C(C)(C)C)c1ccccc1 (centres undefined) | 2.55 µg/mL (≈ 7.79 µM)
35 | CCOC(=O)c1c(NC(=O)CNC(C)CC)sc2c1CCCC2 (centres undefined) | 17.4 µg/mL (≈ 51.4 µM)
36 | CCC(=O)NC(=S)Nc1ccc(N2CCCCC2)cc1 | 3.52 µg/mL (≈ 12.1 µM)
37 | COc1ccc(N/C(N)=N/c2nc(-c3cccs3)cc(C(F)(F)F)n2)cc1 | > 50 µg/mL (inactive)
38 | Cc1cccc(Nc2nc(-c3ccccn3)cs2)n1 | < 0.1 µg/mL
39 | CCC(C)c1ccccc1OCC(=O)Nc1ccc(Cl)cc1 (centres undefined) | 4.68 µg/mL (≈ 14.7 µM)
40 | Cc1ccc(NC(=O)c2ccc(OCC(=O)OC3CCCCC3)cc2)cc1 | 2.73 µg/mL (≈ 7.43 µM)

Row | SMILES | IC50
41 | Cc1nc(Nc2nc3c(c(=O)[nH]2)CCCC3)nc2c(C)cccc12 | 28.1 µg/mL (≈ 87.4 µM)
42 | CC1CN(c2ccc([N+](=O)[O-])cc2)CCN1C(=O)c1cccc(Br)c1 (centres undefined) | 2.83 µg/mL (≈ 7 µM)
43 | CCCn1c2ccccc2c2nc3ccccc3nc21 | > 50 µg/mL (inactive)
44 | O=C(OCc1c(F)cccc1Cl)c1cc2ccccc2oc1=O | > 50 µg/mL (inactive)
45 | COC(=O)c1ccc(COC(=O)c2ccc(Cl)cc2)cc1 | > 50 µg/mL (inactive)
46 | O=C(Nc1ccc(Cl)c(Cl)c1)c1ccc(Cl)cc1Cl | 5.19 µg/mL (≈ 15.5 µM)
47 | CCOC(=O)c1ccccc1OC(=O)c1c(F)c(F)c(F)c(F)c1F | 9.77 µg/mL (≈ 27.1 µM)
48 | Cc1cccc(NC(=O)c2cc3cc([N+](=O)[O-])ccc3oc2=O)c1 | > 50 µg/mL (inactive)
49 | COc1ccccc1C1=Nc2cccc3cccc(c23)N1 | 0.24 µg/mL (≈ 0.875 µM)
50 | S=C(NCCCN1CCN(c2ccc(Cl)cc2)CC1)Nc1cccc(Cl)c1 | 3 µg/mL (≈ 7.09 µM)
51 | Cc1ccc(C(=O)Oc2ccc(Cl)c3cccnc23)cc1[N+](=O)[O-] | 0.94 µg/mL (≈ 2.74 µM)
52 | COC(=O)C1=C(C)N(c2ccc(F)c(Cl)c2)C(=O)C1 | 13.5 µg/mL (≈ 47.4 µM)
53 | COc1cc(C=O)ccc1OC(=O)c1cccs1 | 4.13 µg/mL (≈ 15.7 µM)
54 | CNCc1ccc(OCc2ccc(Cl)cc2Cl)cc1 | 4.85 µg/mL (≈ 16.4 µM)
55 | Oc1ccccc1CNCCC12CC3CC(CC(C3)C1)C2 | > 50 µg/mL (inactive)
56 | CCN(CC)c1ccc(NC(=O)c2ccc([N+](=O)[O-])o2)c(C)c1 | 0.52 µg/mL (≈ 1.64 µM)
57 | Cc1cc(C)cc(COc2ccc3c(C)c(CCC(=O)O)c(=O)oc3c2C)c1 | 0.32 µg/mL (≈ 0.841 µM)
58 | COc1ccc2c(c1)c(=O)oc1cc(OC(C)C(=O)c3ccccc3)ccc12 (centres undefined) | 2.84 µg/mL (≈ 7.59 µM)
59 | CCCCNCCOc1ccc(Cl)cc1C(C)(C)C | 12.8 µg/mL (≈ 45 µM)
